Literature values in patent US11957681B2, “Liquid dosage forms of Imatinib” (SHORLA PHARMA LTD., priority 2018, dated 2024).

Key:
[1] = compared with Imatinib mesylate

Structure (SMILES): Cc1ccc(NC(=O)c2ccc(CN3CCNCC3)cc2)cc1Nc1nccc(-c2cccnc2)n1 [N-desmethyl derivative]
- Share of the AUC for Imatinib mesylate (circulating metabolite): about 15%
- Elimination half-life (imatinib mesylate orally administered): ~40 h
- Potency in vitro [1]: potency similar to Imatinib mesylate
